This note sets out measurements from the supplement of paper PMC11208160.
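Note: IS621 recombinase and bridge RNA in Escherichia coli cells.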

A short description of the data set: recombinant barcode read abundance after kanamycin selection (control-corrected) (log10(CPM+1)); higher = more efficient recombination; sequences stand for … in AGTGCAGAGAAAATCGGCCAGTTTTCTCTGCCTGCAGTCCGCATGCCGT…AGATTTATGCAGCGGACTGCCTTTCTCCCAAAGTGATAAACCGGACAGTATCATGGACCGGTTTTCCCGGTAATCCGTATTTGCAAGGTTGGTTTCACT; site = the 11-nt target. In a few lines: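 This pooled E. coli screen matched targets with IS621 bridge RNA target-binding loops. Plating was done in duplicate on chloramphenicol/ampicillin LB agar as a control and on chloramphenicol/ampicillin/kanamycin plus 0.1 mM IPTG. Recombination efficiency reflects barcode counts at recombinant junctions as counts per million, averaged and control-corrected. The figures are log10(CPM+1).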
With “TAGGGCACTTGGGTTCTAACCTGTTGCTA (site TAGGCGACTTA)”, the “recombinant barcode read abundance (log10)” value was 0.875.

“TAGGGCACTTGGGTTCTAACCTGTTGCTA (site TAGGGCACTTA)”: the “recombinant barcode read abundance (log10)” value was 1.44.

For the sequence “TAGGGTCCTTGGGTTCTAACCTGTTGCGG (site TAAGGTCCTCT)”, the “recombinant barcode read abundance (log10)” value was 1.35.

Take “TAGGGTCCTTGGGTTCTAACCTGTTGCGG (site TAGGGTCCTCC)”: the “recombinant barcode read abundance (log10)” value was 2.88.

As for “TAGGGTTCTTGGGTTCTAACCTGTTGCGG (site CAGGGTCCTCC)”, the “recombinant barcode read abundance (log10)” value was 0.0906.

As to “TAGGGTTCTTGGGTTCTAACCTGTTGCGG (site TAGGGTTCTCC)”, the “recombinant barcode read abundance (log10)” value stood at 3.01.

For “TAGGTCACTTGGGTTCTAACCTGTTGCAT (site TAGATCACTAT)”, the “recombinant barcode read abundance (log10)” value is 0.337.

Take “TAGGTCACTTGGGTTCTAACCTGTTGCAT (site TAGCTCACTAT)”: the “recombinant barcode read abundance (log10)” value came to 0.0353.

For the sequence “TAGGTCACTTGGGTTCTAACCTGTTGCAT (site TAGGTCACTAT)”, the “recombinant barcode read abundance (log10)” value amounted to 2.43.

Turning to “TAGGTCACTTGGGTTCTAACCTGTTGCAT (site TAGTTCACTAT)”, the “recombinant barcode read abundance (log10)” value stood at 0.0621.

Turning to “TAGTAACCTTGGGTTCTAACCTGTTGCTT (site TAGTAACCTAA)”, the “recombinant barcode read abundance (log10)” value amounted to 0.683.

On to “TAGTAACCTTGGGTTCTAACCTGTTGCTT (site TAGTACCCTCA)”, for which the “recombinant barcode read abundance (log10)” value was found to be 0.0923.

On to “TAGTACTCTTGGGTTCTAACCTGTTGCTC (site TAGTACTCTAA)”, for which the “recombinant barcode read abundance (log10)” value was determined as 0.096.

As for “TAGTACTCTTGGGTTCTAACCTGTTGCTC (site TAGTACTCTCA)”, the “recombinant barcode read abundance (log10)” value was 0.429.

Consider “TAGTACTCTTGGGTTCTAACCTGTTGCTC (site TAGTACTCTGA)”, for which the “recombinant barcode read abundance (log10)” value amounted to 1.52.

Turning to “TAGTACTCTTGGGTTCTAACCTGTTGCTC (site TAGTACTCTTA)”, the “recombinant barcode read abundance (log10)” value was 0.124.

Turning to “TAGTATACTTGGGTTCTAACCTGTTGCTG (site TAGTATACTCA)”, the “recombinant barcode read abundance (log10)” value stood at 1.16.

Regarding “TAGTATACTTGGGTTCTAACCTGTTGCTG (site TCGTATACTCC)”, the “recombinant barcode read abundance (log10)” value worked out at 0.0803.

Regarding “TAGTATCCTTGGGTTCTAACCTGTTGCCT (site TAGTAAGCTAG)”, the “recombinant barcode read abundance (log10)” value was found to be 0.433.

For “TAGTATCCTTGGGTTCTAACCTGTTGCCT (site TAGTATCCTAG)”, the “recombinant barcode read abundance (log10)” value is 1.04.

In the case of “TAGTATGCTTGGGTTCTAACCTGTTGCTA (site TAGTATCCTTA)”, the “recombinant barcode read abundance (log10)” value is 0.0173.

As to “TAGTATGCTTGGGTTCTAACCTGTTGCTA (site TAGTATGCTTA)”, the “recombinant barcode read abundance (log10)” value was 1.39.

Take “TAGTCAACTTGGGTTCTAACCTGTTGCGT (site TAGTCAACTAC)”: the “recombinant barcode read abundance (log10)” value worked out at 0.593.

“TAGTCAACTTGGGTTCTAACCTGTTGCGT (site TGGCCAACTAC)”: the “recombinant barcode read abundance (log10)” value was 0.0928.

As for “TAGTCAGCTTGGGTTCTAACCTGTTGCAC (site TAGTCAGCTGT)”, the “recombinant barcode read abundance (log10)” value amounted to 1.2.

In the case of “TAGTCAGCTTGGGTTCTAACCTGTTGCAC (site TGGTCGGCTGT)”, the “recombinant barcode read abundance (log10)” value worked out at 0.00985.

Regarding “TAGTCCTCTTGGGTTCTAACCTGTTGCTA (site TAGTCCTCTAA)”, the “recombinant barcode read abundance (log10)” value amounted to 0.0289.

With “TAGTCCTCTTGGGTTCTAACCTGTTGCTA (site TAGTCCTCTCA)”, the “recombinant barcode read abundance (log10)” value came to 0.0797.

“TAGTCCTCTTGGGTTCTAACCTGTTGCTA (site TAGTCCTCTGA)”: the “recombinant barcode read abundance (log10)” value is 0.0492.

Consider “TAGTCCTCTTGGGTTCTAACCTGTTGCTA (site TAGTCCTCTTA)”, for which the “recombinant barcode read abundance (log10)” value was determined as 1.05.

As for “TAGTCCTCTTGGGTTCTAACCTGTTGCTC (site TAGTCCTCTAA)”, the “recombinant barcode read abundance (log10)” value amounted to 0.0149.

For “TAGTCCTCTTGGGTTCTAACCTGTTGCTC (site TAGTCCTCTCA)”, the “recombinant barcode read abundance (log10)” value is 0.0708.
